For one test, the target named is T1, XIAP BIR-3 (Homo sapiens, UniProt P98170).
T1 construct: 40 nM of the respective IAP BIR3
Kind of test: Fluorescence polarization binding affinity to XIAP BIR-3 (competition with AbuRPF-K(5-Fam)-NH2). To be noted: 5 nM labeled peptide, 40 nM BIR3, 15 min at RT, pH 7.5; reported as ranges. The protocol: (§1) The binding affinities of the compounds are reported as a KD value (μM). Briefly, various concentrations of test peptides were mixed with 5 nM of the fluorescently labeled peptide (i.e., a mutated N-terminal Smac peptide—AbuRPF-K(5-Fam)-NH2) and 40 nM of the respective IAP BIR3 for 15 min at RT in […] of 0.1M Potassium Phosphate buffer, pH 7.5 containing […] bovine g-globulin. Following incubation, the polarization values (mP) were measured on a Victor2V (available from PerkinElmer Life Sciences) using a 485 nm excitation filter and a 520 nm emission filter. The reported KD values are supplied as ranges (A=<0.1 μM, B=0.1 μM to 1 μM, C>1 μM to 10 μM, D=>10 μM).

For the next test, the target named is cIAP-1 BIR-3 (Homo sapiens, UniProt Q13490). Kind of test: Fluorescence polarization binding affinity to cIAP-1 BIR-3 (competition with AbuRPF-K(5-Fam)-NH2). To be noted: 5 nM labeled peptide, 40 nM BIR3, 15 min at RT, pH 7.5; reported as ranges; read-out: KD (c-IAP-1 BIR3). The protocol: as §1
In another test the test system is SK-OV-3 cells. Kind of test: Growth inhibition of ovarian cancer cell line SK-OV-3 (MTT assay, cell survival). Format: cell-based. To be noted: Homo sapiens, drug concentration that results in 50% cell survival, 72 hrs incubation, reported as ranges. Here is the method:
Compounds of the invention also were tested for their ability to inhibit the growth of an ovarian cancer cell line, SK-OV-3. A known assay previously used for measuring cell growth (as described in Hansen, M. B., Nielsen, S. E., and Berg, K. (1989) J. Immunol. Methods 119, 203-210 and incorporated herein by reference in its entirety) was used. Briefly, SK-OV-3 cells are seeded in 96-well plates in McCoy's medium containing 10% fetal bovine serum albumin (5,000 per well) and incubated overnight at 37° C. The next day, test compounds are added at various concentrations (0.003-10 μM) and the plates are incubated at 37° C. for an additional 72 hrs. This incubation time was considered to be optimal for measuring inhibitory effects of the different compounds tested. 50 microliters of 5 mg/mL MTT reagent is added to each well and the plates are incubated at 37° C. for another three (3) hours. At the end of the three (3) hour incubation period, 50 microliters of DMSO is added to each well to dissolve cells and the optical density (OD) of the wells is measured with a microplate reader (Victor^2 1420, Wallac, Finland) at 535 nm. Cell survival (CS) was calculated using the following equation: CS=(OD treated well/mean OD control wells)×100%.
The CC50 (reported in the following tables), is defined as the drug concentration that results in 50% cell survival (CS), and is derived by calculating the point where the dose-response curve crosses the 50% CS point using GraphPad Prism. The reported CC50 values are supplied as ranges (A=<0.1 μM, B=0.1 μM to 1 μM, C=>1 μM to 10 μM, D=>10 μM).

Bounds are passed on as bounds.

cIAP-1 BIR-3, sequence (Q13490 266-352 limits assumed): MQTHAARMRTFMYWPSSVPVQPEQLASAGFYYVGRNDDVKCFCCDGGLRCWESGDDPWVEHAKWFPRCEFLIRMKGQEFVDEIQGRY
T1 sequence (P98170 241-356 limits assumed): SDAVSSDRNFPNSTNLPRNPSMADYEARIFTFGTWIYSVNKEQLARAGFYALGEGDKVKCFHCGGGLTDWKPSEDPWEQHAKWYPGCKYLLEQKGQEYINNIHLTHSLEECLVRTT

Turning to `CN[C@@H](C)C(=O)N[C@H](C(=O)N1CC[C@@H]2[C@H]1[C@@H](c1c[nH]c3cc(F)ccc13)CN2C1CCCCC1)C1CCCCC1` [Example 20, N-{1-Cyclohexyl-2-[4-cyclohexyl-6-(6-fluoro-1H-indol-3-yl)-hexahydro-pyrrolo[3,2-b]pyrrol-1-yl]-2-oxo-ethyl}-2-methylamino-propionamide], the Kd at XIAP BIR-3 and on cIAP-1 BIR-3 was < 100 nM each time. In the test on SK-OV-3 cells, this compound came in with a 50% cytotoxic concentration (CC50) of 100 to 1000 nM.
With `CN[C@@H](C)C(=O)N[C@H](C(=O)N1CC[C@@H]2[C@H]1[C@@H](c1c[nH]c3cc(F)ccc13)CN2C1CCNCC1)C1CCCCC1` [Example 21, N-{1-Cyclohexyl-2-[6-(6-fluoro-1H-indol-3-yl)-4-piperidin-4-yl-hexahydro-pyrrolo[3,2-b]pyrrol-1-yl]-2-oxo-ethyl}-2-methylamino-propionamide], the equilibrium dissociation constant (Kd) on XIAP BIR-3 is 100 to 1000 nM; at cIAP-1 BIR-3, < 100 nM. In addition, in the test with SK-OV-3 cells, the CC50 is > 10000 nM.
The matching figures for `CN[C@@H](C)C(=O)N[C@H](C(=O)N1CC[C@@H]2[C@H]1[C@@H](c1c[nH]c3cc(F)ccc13)CN2C1CCN(C)CC1)C1CCCCC1` [Example 22, N-{1-Cyclohexyl-2-[6-(6-fluoro-1H-indol-3-yl)-4-(1-methyl-piperidin-4-yl)-hexahydro-pyrrolo[3,2-b]pyrrol-1-yl]-2-oxo-ethyl}-2-methylamino-propionamide]: 100 to 1000 nM, < 100 nM and 100 to 1000 nM.
The matching figures for `CN[C@@H](C)C(=O)N[C@H](C(=O)N1CC[C@@H]2[C@H]1[C@@H](c1c[nH]c3cc(F)ccc13)CN2Cc1ncc(C)s1)C1CCCCC1` [Example 23, N-{1-Cyclohexyl-2-[6-(6-fluoro-1H-indol-3-yl)-4-(5-methyl-thiazol-2-ylmethyl)-hexahydro-pyrrolo[3,2-b]pyrrol-1-yl]-2-oxo-ethyl}-2-methylamino-propionamide]: < 100 nM, < 100 nM and < 100 nM.
In the case of `CN[C@@H](C)C(=O)N[C@H](C(=O)N1CC[C@@H]2[C@H]1[C@@H](c1c[nH]c3cc(F)ccc13)CN2Cc1ccccn1)C1CCCCC1` [Example 24, N-{1-Cyclohexyl-2-[6-(6-fluoro-1H-indol-3-yl)-4-pyridin-2-ylmethyl-hexahydro-pyrrolo[3,2-b]pyrrol-1-yl]-2-oxo-ethyl}-2-methylamino-propionamide], the dissociation constant (Kd) at XIAP BIR-3 and on cIAP-1 BIR-3 was < 100 nM in each case. Moreover, the CC50 in the test on SK-OV-3 cells was < 100 nM.
As to `CN[C@@H](C)C(=O)N[C@H](C(=O)N1CC[C@@H]2[C@H]1[C@@H](c1c[nH]c3cc(F)ccc13)CN2Cc1cccnc1)C1CCCCC1` [Example 25, N-{1-Cyclohexyl-2-[6-(6-fluoro-1H-indol-3-yl)-4-pyridin-3-ylmethyl-hexahydro-pyrrolo[3,2-b]pyrrol-1-yl]-2-oxo-ethyl}-2-methylamino-propionamide], the Kd on XIAP BIR-3 and on cIAP-1 BIR-3 was < 100 nM in each case. In the test with SK-OV-3 cells, this compound came in with a CC50 of 100 to 1000 nM.
Take `CN[C@@H](C)C(=O)N[C@H](C(=O)N1CC[C@@H]2[C@H]1[C@@H](c1c[nH]c3cc(F)ccc13)CN2Cc1ccncc1)C1CCCCC1` [Example 26, N-{1-Cyclohexyl-2-[6-(6-fluoro-1H-indol-3-yl)-4-pyridin-4-ylmethyl-hexahydro-pyrrolo[3,2-b]pyrrol-1-yl]-2-oxo-ethyl}-2-methylamino-propionamide]: the dissociation constant Kd on XIAP BIR-3 and at cIAP-1 BIR-3 was < 100 nM throughout. In addition, the CC50 in the test on SK-OV-3 cells was < 100 nM.
As to `CN[C@@H](C)C(=O)N[C@H](C(=O)N1CC[C@@H]2[C@H]1[C@@H](c1c[nH]c3cc(F)ccc13)CN2Cc1nccn1C)C1CCCCC1` [Example 27, N-{1-Cyclohexyl-2-[6-(6-fluoro-1H-indol-3-yl)-4-(1-methyl-1H-imidazol-2-ylmethyl)-hexahydro-pyrrolo[3,2-b]pyrrol-1-yl]-2-oxo-ethyl}-2-methylamino-propionamide], the dissociation constant (Kd) on XIAP BIR-3 and on cIAP-1 BIR-3 was < 100 nM in each case. The same compound registered a CC50 in the test on SK-OV-3 cells of 1000 to 10000 nM.
For the compound `CN[C@@H](C)C(=O)N[C@H](C(=O)N1CC[C@H]2NC[C@H](c3c[nH]c4cc(F)ccc34)[C@H]21)[C@@H](C)O` [Example 28, N-{1-[6-(6-Fluoro-1H-indol-3-yl)-hexahydro-pyrrolo[3,2-b]pyrrole-1-carbonyl]-2-hydroxy-propyl}-2-methylamino-propionamide], the Kd on XIAP BIR-3 was 100 to 1000 nM; on cIAP-1 BIR-3 it was < 100 nM. The CC50 in the test on SK-OV-3 cells lay within 1000 to 10000 nM.
The matching figures for `CC[C@H](NC(=O)[C@H](C)NC)C(=O)N1CC[C@H]2NC[C@H](c3c[nH]c4cc(F)ccc34)[C@H]21` [Example 29, N-{1-[6-(6-Fluoro-1H-indol-3-yl)-hexahydro-pyrrolo[3,2-b]pyrrole-1-carbonyl]-propyl}-2-methylamino-propionamide]: < 100 nM, < 100 nM and 100 to 1000 nM.
Consider `CN[C@@H](C)C(=O)N[C@H](C(=O)N1CC[C@H]2NC[C@H](c3c[nH]c4cc(F)ccc34)[C@H]21)C(C)C` [Example 30, N-{1-[6-(6-Fluoro-1H-indol-3-yl)-hexahydro-pyrrolo[3,2-b]pyrrole-1-carbonyl]-2-methyl-propyl}-2-methylamino-propionamide], for which the Kd at XIAP BIR-3 and at cIAP-1 BIR-3 was < 100 nM throughout. Besides, in the test with SK-OV-3 cells, the CC50 was < 100 nM.
In the case of `CN[C@@H](C)C(=O)N[C@H](C(=O)N1CC[C@H]2NC[C@H](c3c[nH]c4cc(F)ccc34)[C@H]21)C(C)(C)C` [Example 31, N-{1-[6-(6-Fluoro-1H-indol-3-yl)-hexahydro-pyrrolo[3,2-b]pyrrole-1-carbonyl]-2,2-dimethyl-propyl}-2-methylamino-propionamide], the dissociation constant Kd was 100 to 1000 nM on XIAP BIR-3 and < 100 nM on cIAP-1 BIR-3. For the same compound, in the test on SK-OV-3 cells, the CC50 was < 100 nM.
Take `CN[C@@H](C)C(=O)N[C@H](C(=O)N1CC[C@H]2NC[C@H](c3c[nH]c4cc(F)ccc34)[C@H]21)C1CCCCC1` [Example 32, N-{1-Cyclohexyl-2-[6-(6-fluoro-1H-indol-3-yl)-hexahydro-pyrrolo[3,2-b]pyrrol-1-yl]-2-oxo-ethyl}-2-methylamino-propionamide]: the dissociation constant Kd on XIAP BIR-3 and on cIAP-1 BIR-3 was < 100 nM in each case. In addition, the CC50 in the test with SK-OV-3 cells is < 100 nM.
As for `CN[C@@H](C)C(=O)N[C@@H](CO)C(=O)N1CC[C@H]2NC[C@H](c3c[nH]c4cc(F)ccc34)[C@H]21` [Example 33, N-{2-[6-(6-Fluoro-1H-indol-3-yl)-hexahydro-pyrrolo[3,2-b]pyrrol-1-yl]-1-hydroxymethyl-2-oxo-ethyl}-2-methylamino-propionamide], the Kd on XIAP BIR-3 and at cIAP-1 BIR-3 was < 100 nM throughout. In the test on SK-OV-3 cells, this compound returned a CC50 of 1000 to 10000 nM.
For the compound `CN[C@@H](C)C(=O)N[C@@H](COC)C(=O)N1CC[C@H]2NC[C@H](c3c[nH]c4cc(F)ccc34)[C@H]21` [Example 34, N-{2-[6-(6-Fluoro-1H-indol-3-yl)-hexahydro-pyrrolo[3,2-b]pyrrol-1-yl]-1-methoxymethyl-2-oxo-ethyl}-2-methylamino-propionamide], the equilibrium dissociation constant (Kd) on XIAP BIR-3 and at cIAP-1 BIR-3 was < 100 nM in each case. Besides, the cytotoxic concentration (CC50) with SK-OV-3 cells was in the range of 1000 to 10000 nM.
For the compound `CN[C@@H](C)C(=O)N[C@H](C(=O)N1CC[C@H]2NC[C@H](c3c[nH]c4cc(F)ccc34)[C@H]21)[C@@H](C)OC` [Example 35, N-{1-[6-(6-Fluoro-1H-indol-3-yl)-hexahydro-pyrrolo[3,2-b]pyrrole-1-carbonyl]-2-methoxy-propyl}-2-methylamino-propionamide], the dissociation constant Kd on XIAP BIR-3 and at cIAP-1 BIR-3 was < 100 nM each time. Moreover, the 50% cytotoxic concentration (CC50) in the test on SK-OV-3 cells was < 100 nM.
Take `CN[C@@H](C)C(=O)N[C@H](C(=O)N1CC[C@@H]2[C@H]1[C@@H](c1c[nH]c3cc(F)ccc13)CN2C(=O)OC)C1CCCCC1` [Example 36, 4-[2-Cyclohexyl-2-(2-methylamino-propionylamino)-acetyl]-3-(6-fluoro-1H-indol-3-yl)-hexahydro-pyrrolo[3,2-b]pyrrole-1-carboxylic acid methyl ester]: the dissociation constant Kd at XIAP BIR-3 and at cIAP-1 BIR-3 was < 100 nM in each case. Moreover, the half-maximal cytotoxic concentration (CC50) in the test with SK-OV-3 cells is < 100 nM.

For the origin of these results see patent US8399683B2 (TetraLogic Pharmaceuticals, priority 2008, dated 2013).
